Data on 1 molecule can be found in patent publication US8143484B2, “Method for regulating agrobacterium-mediated transformation” (priority 2008, dated 2012).

One assay has as its system lillies. Conditions: addition of acetosyringone; cited from earlier work.
Assay [1] concerns P898012 sorghum immature embryos. Description: Phenolic compound production by infected, cultured sorghum immature embryos (visual exudates). Conditions: infected and cultured immature zygotic embryos of sorghum (FIG. 3). The format is cell-based. The procedure:
Transformation was carried out in 6 distinctive but sequential phases. Freshly isolated embryos of P898012 or GS3 were mixed together or separated into 1.5 mL of medium 700 either lacking or containing […] acetosyringone. The concentration of A. tumefaciens harbouring the vector PHP15303 (FIG. 5) in the suspension was adjusted to 0.857×10^9 cfu/mL [Optical Density (OD) approximately 0.6 at 550 nm]. The infection suspension was vortexed gently for 15 seconds, poured into 1 cm-diameter microplates and vacuumed for 5 minutes with gentle rocking for mixing. • 2. The Agrobacterium suspension was then aspirated and the embryos plated on co-cultivation medium 710B either lacking or containing […] acetosyringone for 3 days (co-cultivation) and cultured in the dark at 25° C. • 3. […]
Cultured immature zygotic embryos of the sorghum genotype P898012 produce phenolic compounds which can be visually identified as black/dark brown exudates within the proximity of the embryos on tissue culture medium (FIG. 2 (I) and FIG. 1 (J)). When these immature embryos are infected with A. tumefaciens, higher quantities of these phenolic compounds are produced, especially when the medium on which the embryos are cultured is not supplemented with the synthetic acetosyringone (contrast FIGS. 2 (A & B) vs. FIGS. 2 (D & E)).

For another assay, the system named is wheat. The following applies: 200 μM instead of the usual 100 μM; cited from earlier work.
The test system of a further assay is sorghum. Conditions: acetosyringone alone used to induce vir gene expression; cited from earlier work.

As to `COc1cc(C(C)=O)cc(OC)c1O` [acetosyringone, 4-acetyl-2,6-dimethoxyphenol], the “effect on transformation efficiency” value with lillies is recorded as “does not have any effect on transformation efficiency”. The “effect on production of phenolic compounds” value in assay [1] is listed as “depresses the production of phenolic compounds”. The “T-DNA transfer and transformation efficiency” value in the assay on wheat is “higher levels of T-DNA transfer and transformation efficiency”. The Agrobacterium transformation efficiency entry in the assay with sorghum was “very low”.
